Columns and labels:
[1] = target: Serine/threonine-protein kinase N1 (Homo sapiens) (UniProt Q16512); assay: Inhibition of human PKN1 (E598 to C948 residues) expressed in bacterial expression system assessed as residual activity at 50 nM by KINOMEscan assay relative to control
[2] = target: Rho-associated protein kinase 2 (Homo sapiens, UniProt O75116); assay: Inhibition of human ROCK2 (M1 to T431 residues) expressed in mammalian expression system assessed as residual activity at 50 nM by KINOMEscan assay relative to control
[3] = target: Serine/threonine-protein kinase 3 (Homo sapiens) (UniProt Q13188); assay: Inhibition of human MST2 (D17 to E318 residues) expressed in bacterial expression system assessed as residual activity at 50 nM by KINOMEscan assay relative to control
[4] = target: Non-receptor tyrosine-protein kinase TNK1 (Homo sapiens) (UniProt Q13470); assay: Inhibition of wild-type human full length TNK1 (M1 to P661 residues) expressed in bacterial expression system assessed as residual activity at 50 nM by Kinomescan method relative to control
Chain of Non-receptor tyrosine-protein kinase TNK1 (Homo sapiens) (Q13470 whole entry, the tested form may be a part): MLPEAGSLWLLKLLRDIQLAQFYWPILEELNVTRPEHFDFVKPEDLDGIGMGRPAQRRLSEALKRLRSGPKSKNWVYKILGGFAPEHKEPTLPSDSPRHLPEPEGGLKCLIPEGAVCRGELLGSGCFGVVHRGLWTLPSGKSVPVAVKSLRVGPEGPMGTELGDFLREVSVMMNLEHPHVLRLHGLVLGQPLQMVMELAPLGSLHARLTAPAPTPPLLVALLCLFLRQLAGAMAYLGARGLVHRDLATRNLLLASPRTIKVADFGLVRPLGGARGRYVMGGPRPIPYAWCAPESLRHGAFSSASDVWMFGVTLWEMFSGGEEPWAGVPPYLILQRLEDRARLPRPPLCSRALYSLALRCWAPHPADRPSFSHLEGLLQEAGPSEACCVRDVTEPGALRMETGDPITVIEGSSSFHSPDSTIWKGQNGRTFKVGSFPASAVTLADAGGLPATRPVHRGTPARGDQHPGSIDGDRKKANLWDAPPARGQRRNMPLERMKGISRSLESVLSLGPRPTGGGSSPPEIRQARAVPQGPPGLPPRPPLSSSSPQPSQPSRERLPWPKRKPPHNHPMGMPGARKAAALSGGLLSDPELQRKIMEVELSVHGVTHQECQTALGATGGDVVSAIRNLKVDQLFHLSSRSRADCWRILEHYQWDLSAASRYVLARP

[5] = target: Protein kinase C theta type (Homo sapiens) (UniProt Q04759); assay: Inhibition of wild-type human partial length PKCT (L350 to S706 residues) expressed in bacterial expression system assessed as residual activity at 50 nM by Kinomescan method relative to control
[6] = target: Mast/stem cell growth factor receptor Kit (Homo sapiens) (UniProt P10721); assay: Inhibition of wild-type human partial length KIT (I571 to D952 residues) expressed in bacterial expression system assessed as residual activity at 50 nM by Kinomescan method relative to control
Chain of Mast/stem cell growth factor receptor Kit (Homo sapiens) (P10721 whole entry, the tested form may be a part): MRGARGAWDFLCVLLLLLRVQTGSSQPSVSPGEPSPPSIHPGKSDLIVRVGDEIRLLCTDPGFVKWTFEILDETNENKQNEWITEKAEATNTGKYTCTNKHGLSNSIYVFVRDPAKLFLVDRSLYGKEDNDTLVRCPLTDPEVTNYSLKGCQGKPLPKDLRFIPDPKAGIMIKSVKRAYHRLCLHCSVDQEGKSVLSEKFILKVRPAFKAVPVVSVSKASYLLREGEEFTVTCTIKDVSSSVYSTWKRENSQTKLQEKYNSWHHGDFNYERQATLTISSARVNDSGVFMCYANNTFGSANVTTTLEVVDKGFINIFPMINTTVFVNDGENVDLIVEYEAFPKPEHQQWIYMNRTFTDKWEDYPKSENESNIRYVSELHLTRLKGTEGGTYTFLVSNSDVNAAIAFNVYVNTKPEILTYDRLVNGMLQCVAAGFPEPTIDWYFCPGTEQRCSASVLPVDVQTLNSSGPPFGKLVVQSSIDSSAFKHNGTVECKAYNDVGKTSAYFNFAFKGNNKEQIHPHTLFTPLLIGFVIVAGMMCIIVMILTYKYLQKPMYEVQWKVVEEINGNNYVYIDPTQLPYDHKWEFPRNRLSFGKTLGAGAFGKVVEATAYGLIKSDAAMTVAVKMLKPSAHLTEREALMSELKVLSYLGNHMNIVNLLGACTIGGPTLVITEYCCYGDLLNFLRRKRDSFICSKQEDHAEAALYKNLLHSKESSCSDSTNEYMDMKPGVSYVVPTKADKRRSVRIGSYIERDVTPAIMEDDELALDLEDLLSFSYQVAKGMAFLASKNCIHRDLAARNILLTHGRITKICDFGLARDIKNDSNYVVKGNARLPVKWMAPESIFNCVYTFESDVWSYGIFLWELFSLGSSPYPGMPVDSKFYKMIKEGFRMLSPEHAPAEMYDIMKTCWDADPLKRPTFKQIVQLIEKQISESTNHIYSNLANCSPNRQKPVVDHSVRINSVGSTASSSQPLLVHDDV

[7] = target: Receptor-interacting serine/threonine-protein kinase 4 (Homo sapiens) (UniProt P57078); assay: Inhibition of wild-type human partial length ANKRD3 (M1 to V303 residues) expressed in mammalian expression system assessed as residual activity at 50 nM by Kinomescan method relative to control
[8] = target: Serine/threonine-protein kinase PAK 4 (Homo sapiens) (UniProt O96013); assay: Inhibition of wild-type human partial length PAK4 (Q144 to R438 residues) expressed in bacterial expression system assessed as residual activity at 50 nM by Kinomescan method relative to control
[9] = target: Mitogen-activated protein kinase 8 (Homo sapiens) (UniProt P45983); assay: Inhibition of wild-type human full length JNK1 (M1 to Q384 residues) expressed in mammalian expression system assessed as residual activity at 50 nM by Kinomescan method relative to control
Chain of Mitogen-activated protein kinase 8 (Homo sapiens) (P45983 whole entry, the tested form may be a part): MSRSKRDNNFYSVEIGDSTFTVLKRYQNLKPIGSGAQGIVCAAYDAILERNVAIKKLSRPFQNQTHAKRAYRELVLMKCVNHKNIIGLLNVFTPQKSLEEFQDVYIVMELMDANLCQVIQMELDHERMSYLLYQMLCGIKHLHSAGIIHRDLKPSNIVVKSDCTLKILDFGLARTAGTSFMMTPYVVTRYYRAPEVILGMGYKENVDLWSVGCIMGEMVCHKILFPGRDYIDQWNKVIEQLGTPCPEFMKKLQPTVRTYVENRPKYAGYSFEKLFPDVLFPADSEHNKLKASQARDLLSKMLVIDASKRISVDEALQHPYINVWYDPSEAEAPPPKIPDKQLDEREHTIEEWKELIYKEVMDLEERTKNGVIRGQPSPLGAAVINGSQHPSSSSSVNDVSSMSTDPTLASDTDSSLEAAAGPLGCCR

[10] = target: Tyrosine-protein kinase Lck (Homo sapiens) (UniProt P06239); assay: Inhibition of wild-type human partial length LCK (R207 to P509 residues) expressed in bacterial expression system assessed as residual activity at 50 nM by Kinomescan method relative to control
[11] = target: Serine/threonine-protein kinase PAK 1 (Homo sapiens) (UniProt Q13153); assay: Inhibition of wild-type human partial length PAK1 (S149 to H545 residues) expressed in bacterial expression system assessed as residual activity at 50 nM by Kinomescan method relative to control
Chain of Serine/threonine-protein kinase PAK 1 (Homo sapiens) (Q13153 whole entry, the tested form may be a part): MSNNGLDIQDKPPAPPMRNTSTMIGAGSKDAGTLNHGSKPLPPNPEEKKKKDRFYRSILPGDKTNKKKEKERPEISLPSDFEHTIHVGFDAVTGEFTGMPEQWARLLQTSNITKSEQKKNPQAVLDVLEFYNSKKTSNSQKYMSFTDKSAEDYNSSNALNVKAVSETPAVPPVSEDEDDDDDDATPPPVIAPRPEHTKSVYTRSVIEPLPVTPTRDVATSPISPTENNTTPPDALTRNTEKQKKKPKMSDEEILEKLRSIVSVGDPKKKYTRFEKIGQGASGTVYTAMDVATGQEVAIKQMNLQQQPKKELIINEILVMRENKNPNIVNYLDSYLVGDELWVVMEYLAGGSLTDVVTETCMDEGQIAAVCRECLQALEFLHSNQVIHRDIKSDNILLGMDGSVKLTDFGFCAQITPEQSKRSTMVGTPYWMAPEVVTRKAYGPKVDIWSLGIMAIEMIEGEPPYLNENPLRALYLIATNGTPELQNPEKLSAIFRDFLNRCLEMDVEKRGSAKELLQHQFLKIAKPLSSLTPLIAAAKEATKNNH

[12] = target: Serine/threonine-protein kinase/endoribonuclease IRE1 (Homo sapiens) (UniProt O75460); assay: Inhibition of wild-type human partial length IRE1 (S551 to E852 residues) expressed in mammalian expression system assessed as residual activity at 50 nM by Kinomescan method relative to control
[13] = target: Serine/threonine-protein kinase LATS1 (Homo sapiens) (UniProt O95835); assay: Inhibition of wild-type human partial length LATS1 (Q678 to V1130 residues) expressed in bacterial expression system assessed as residual activity at 50 nM by Kinomescan method relative to control
[14] = target: Mitogen-activated protein kinase 7 (Homo sapiens) (UniProt Q13164); assay: Inhibition of wild-type human partial length ERK5 (M1 to A409 residues) expressed in bacterial expression system assessed as residual activity at 50 nM by Kinomescan method relative to control
Chain of Mitogen-activated protein kinase 7 (Homo sapiens) (Q13164 2-816 limits assumed): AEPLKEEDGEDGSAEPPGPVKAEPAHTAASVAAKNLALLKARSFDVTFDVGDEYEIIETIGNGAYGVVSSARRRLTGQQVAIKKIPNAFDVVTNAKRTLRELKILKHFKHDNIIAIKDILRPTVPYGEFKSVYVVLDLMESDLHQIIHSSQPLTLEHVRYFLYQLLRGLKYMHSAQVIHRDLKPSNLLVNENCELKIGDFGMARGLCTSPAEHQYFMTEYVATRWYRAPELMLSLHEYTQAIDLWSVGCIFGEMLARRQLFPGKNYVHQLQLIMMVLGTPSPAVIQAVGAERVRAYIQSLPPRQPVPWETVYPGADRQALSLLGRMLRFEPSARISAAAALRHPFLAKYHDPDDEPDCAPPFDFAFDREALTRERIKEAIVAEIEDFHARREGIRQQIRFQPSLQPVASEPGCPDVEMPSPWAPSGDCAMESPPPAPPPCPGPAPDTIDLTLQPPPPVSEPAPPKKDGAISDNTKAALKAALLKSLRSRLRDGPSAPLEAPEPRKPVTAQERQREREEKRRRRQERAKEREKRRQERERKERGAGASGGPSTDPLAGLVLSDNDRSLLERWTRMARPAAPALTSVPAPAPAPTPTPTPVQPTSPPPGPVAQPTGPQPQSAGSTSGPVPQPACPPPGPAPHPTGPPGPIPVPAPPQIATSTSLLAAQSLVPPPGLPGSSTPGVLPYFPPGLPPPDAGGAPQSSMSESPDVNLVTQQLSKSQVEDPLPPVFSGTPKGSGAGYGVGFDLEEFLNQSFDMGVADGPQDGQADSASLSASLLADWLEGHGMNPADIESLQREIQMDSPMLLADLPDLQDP

[15] = target: Ephrin type-B receptor 4 (Homo sapiens) (UniProt P54760); assay: Inhibition of wild-type human partial length EPHB4 (H585 to G892 residues) expressed in bacterial expression system assessed as residual activity at 50 nM by Kinomescan method relative to control
[16] = target: ALK tyrosine kinase receptor (Homo sapiens) (UniProt Q9UM73); assay: Inhibition of wild-type human partial length ALK (I1088 to E1409 residues) expressed in mammalian expression system assessed as residual activity at 50 nM by Kinomescan method relative to control
[17] = target: CDK4/Cyclin D3 (Homo sapiens) (UniProt P11802+P30281); assay: Inhibition of wild-type human full length CDK4/cyclinD3 (M1 to E303 residues) expressed in mammalian expression system assessed as residual activity at 50 nM by Kinomescan method relative to control
[18] = target: Serine/threonine-protein kinase Chk2 (Homo sapiens) (UniProt O96017); assay: Inhibition of wild-type human partial length CHK2 (S253 to E574 residues) expressed in bacterial expression system assessed as residual activity at 50 nM by Kinomescan method relative to control
Chain of Serine/threonine-protein kinase Chk2 (Homo sapiens) (O96017 whole entry, the tested form may be a part): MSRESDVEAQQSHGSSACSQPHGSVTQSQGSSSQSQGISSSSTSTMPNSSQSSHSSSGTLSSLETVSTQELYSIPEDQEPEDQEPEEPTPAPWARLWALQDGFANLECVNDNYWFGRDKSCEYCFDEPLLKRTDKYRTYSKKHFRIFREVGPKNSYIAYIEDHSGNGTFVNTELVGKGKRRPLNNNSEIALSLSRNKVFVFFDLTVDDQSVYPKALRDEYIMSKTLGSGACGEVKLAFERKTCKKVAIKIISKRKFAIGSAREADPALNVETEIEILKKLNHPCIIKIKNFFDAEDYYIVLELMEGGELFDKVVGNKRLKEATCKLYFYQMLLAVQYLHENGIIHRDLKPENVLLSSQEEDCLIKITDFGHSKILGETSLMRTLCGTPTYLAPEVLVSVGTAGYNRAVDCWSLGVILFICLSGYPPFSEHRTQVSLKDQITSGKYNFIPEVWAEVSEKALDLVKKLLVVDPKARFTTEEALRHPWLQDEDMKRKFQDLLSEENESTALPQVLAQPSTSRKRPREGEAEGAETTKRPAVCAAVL

[19] = target: Ephrin type-B receptor 1 (Homo sapiens) (UniProt P54762); assay: Inhibition of wild-type human partial length EPHB1 (P589 to T911 residues) expressed in bacterial expression system assessed as residual activity at 50 nM by Kinomescan method relative to control
[20] = target: Fibroblast growth factor receptor 2 (Homo sapiens) (UniProt P21802); assay: Inhibition of wild-type human partial length FGFR2 (D457 to E769 residues) expressed in bacterial expression system assessed as residual activity at 50 nM by Kinomescan method relative to control
[21] = target: Homeodomain-interacting protein kinase 1 (Homo sapiens) (UniProt Q86Z02); assay: Inhibition of wild-type human partial length HIPK1 (M146 to I555 residues) expressed in mammalian expression system assessed as residual activity at 50 nM by Kinomescan method relative to control
[22] = target: Serine/threonine-protein kinase LATS2 (Homo sapiens) (UniProt Q9NRM7); assay: Inhibition of wild-type human partial length LATS2 (Q641 to V1088 residues) expressed in mammalian expression system assessed as residual activity at 50 nM by Kinomescan method relative to control
Chain of Serine/threonine-protein kinase LATS2 (Homo sapiens) (Q9NRM7 whole entry, the tested form may be a part): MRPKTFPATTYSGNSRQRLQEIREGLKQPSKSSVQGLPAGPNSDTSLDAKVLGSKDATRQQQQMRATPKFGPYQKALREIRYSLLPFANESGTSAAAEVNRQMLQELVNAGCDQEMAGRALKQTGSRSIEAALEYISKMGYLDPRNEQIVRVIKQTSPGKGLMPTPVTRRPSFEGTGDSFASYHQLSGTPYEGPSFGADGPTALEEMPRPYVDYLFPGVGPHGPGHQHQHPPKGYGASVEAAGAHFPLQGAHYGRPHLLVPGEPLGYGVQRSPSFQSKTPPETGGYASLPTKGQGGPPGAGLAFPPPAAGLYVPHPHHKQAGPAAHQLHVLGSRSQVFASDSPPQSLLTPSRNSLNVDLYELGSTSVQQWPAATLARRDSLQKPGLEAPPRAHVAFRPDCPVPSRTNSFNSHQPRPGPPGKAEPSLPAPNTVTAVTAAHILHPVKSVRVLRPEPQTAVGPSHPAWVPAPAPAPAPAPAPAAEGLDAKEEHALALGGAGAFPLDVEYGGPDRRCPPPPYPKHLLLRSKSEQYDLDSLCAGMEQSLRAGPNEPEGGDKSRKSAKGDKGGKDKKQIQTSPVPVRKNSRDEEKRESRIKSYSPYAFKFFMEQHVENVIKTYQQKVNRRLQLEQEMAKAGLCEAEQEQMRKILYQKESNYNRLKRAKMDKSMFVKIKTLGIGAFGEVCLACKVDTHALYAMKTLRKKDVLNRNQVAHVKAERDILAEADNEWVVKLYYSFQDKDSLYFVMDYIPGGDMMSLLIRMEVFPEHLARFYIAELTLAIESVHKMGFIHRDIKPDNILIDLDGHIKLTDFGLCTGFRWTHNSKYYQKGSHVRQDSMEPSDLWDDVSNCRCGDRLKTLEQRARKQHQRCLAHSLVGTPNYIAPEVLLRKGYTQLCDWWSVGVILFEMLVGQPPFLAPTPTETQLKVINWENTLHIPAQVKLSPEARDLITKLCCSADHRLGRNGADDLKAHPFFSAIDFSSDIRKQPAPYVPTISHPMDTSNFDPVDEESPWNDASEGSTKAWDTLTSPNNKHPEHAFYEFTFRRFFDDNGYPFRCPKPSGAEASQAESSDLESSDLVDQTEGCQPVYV

[23] = target: Mitogen-activated protein kinase 13 (Homo sapiens) (UniProt O15264); assay: Inhibition of wild-type human full length p38-delta (M1 to L365 residues) expressed in bacterial expression system assessed as residual activity at 50 nM by Kinomescan method relative to control
[24] = target: cAMP-dependent protein kinase catalytic subunit alpha (Homo sapiens) (UniProt P17612); assay: Inhibition of wild-type human partial length PKACA (G10 to F351 residues) expressed in bacterial expression system assessed as residual activity at 50 nM by Kinomescan method relative to control
[25] = target: Serine/threonine-protein kinase 32B (Homo sapiens) (UniProt Q9NY57); assay: Inhibition of wild-type human full length YANK2 (M1 to S414 residues) expressed in bacterial expression system assessed as residual activity at 50 nM by Kinomescan method relative to control

Compound | Activity [1] [%] | Activity [2] [%] | Activity [3] [%] | Activity [4] [%] | Activity [5] [%] | Activity [6] [%] | Activity [7] [%] | Activity [8] [%] | Activity [9] [%] | Activity [10] [%] | Activity [11] [%] | Activity [12] [%] | Activity [13] [%] | Activity [14] [%] | Activity [15] [%] | Activity [16] [%] | Activity [17] [%] | Activity [18] [%] | Activity [19] [%] | Activity [20] [%] | further results
CC1(C)[C@H](Nc2c(C(N)=O)cnn3cc(-c4ccccc4)cc23)CC[C@]1(C)N | 0.3 | 3.6 | 6.2 | 34 | 38 | 55 | 59 | 73 | 81 | 87 | 88 | 90 | 91 | 96 | 99 | 100 | 100 | 100 | 100 | 100 | Activity [21]: 100%; Activity [22]: 100%; Activity [23]: 100%; Activity [24]: 100%; Activity [25]: 100%
COc1ccc(-c2cc3c(N[C@@H]4CC[C@](C)(N)C4(C)C)c(C(N)=O)cnn3c2)cn1 | 7 | 18 | 6 | 92 | 74 | 98 | 98 | 86 | 88 | 100 | 96 | 90 | 90 | 100 | 96 | 94 | 80 | 100 | 88 | 89 | Activity [21]: 100%; Activity [22]: 94%; Activity [23]: 100%; Activity [24]: 100%; Activity [25]: 100%

From ChEMBL document CHEMBL4052645, “Discovery of potent and efficacious pyrrolopyridazines as dual JAK1/3 inhibitors” (Bioorg Med Chem Lett, 2017)
